# Laboratory results as given in PubChem BioAssay AID1259407 (Chemical Carcinogenesis Research Information System (CCRIS), 2018).
# Activity calls are given as the source filed them. The rule behind the calls is not given here.
# Tested on: CCRIS mutagenicity, Ames/micronucleus/aberration tests
# Experiment: CCRIS mutagenicity studies
# [1] = Test System: AMES SALMONELLA TYPHIMURIUM, Strain/Indicator: TA98, Metabolic Activation: NONE, Method: PREINCUBATION
# [2] = Test System: AMES SALMONELLA TYPHIMURIUM, Strain/Indicator: TA98, Metabolic Activation: NONE, Method: STANDARD PLATE
# [3] = Test System: AMES SALMONELLA TYPHIMURIUM, Strain/Indicator: TA100, Metabolic Activation: NONE, Method: PREINCUBATION
# [4] = Test System: AMES SALMONELLA TYPHIMURIUM, Strain/Indicator: TA100, Metabolic Activation: NONE, Method: STANDARD PLATE
# [5] = Test System: AMES SALMONELLA TYPHIMURIUM, Strain/Indicator: TA1535, Metabolic Activation: NONE, Method: STANDARD PLATE
# [6] = Test System: AMES SALMONELLA TYPHIMURIUM, Strain/Indicator: TA100, Metabolic Activation: RAT, LIVER, S-9, AROCLOR 1254, Method: STANDARD PLATE
# [7] = Test System: AMES SALMONELLA TYPHIMURIUM, Strain/Indicator: TA98, Metabolic Activation: RAT, LIVER, S-9, AROCLOR 1254, Method: STANDARD PLATE
# [8] = Test System: AMES SALMONELLA TYPHIMURIUM, Strain/Indicator: TA1537, Metabolic Activation: NONE, Method: STANDARD PLATE
# [9] = Test System: AMES SALMONELLA TYPHIMURIUM, Strain/Indicator: TA1538, Metabolic Activation: NONE, Method: STANDARD PLATE
# [10] = Test System: AMES SALMONELLA TYPHIMURIUM, Strain/Indicator: TA1538, Metabolic Activation: RAT, LIVER, S-9, AROCLOR 1254, Method: STANDARD PLATE
compound,measurement,setting,value
CC[C@]1(O)C[C@@H]2CN(CCc3c([nH]c4ccccc34)[C@@](C(=O)OC)(c3cc4c(cc3OC)N(C)[C@H]3[C@@](O)(C(=O)OC)[C@H](OC(C)=O)[C@]5(CC)C=CCN6CC[C@]43[C@@H]65)C2)C1,mutagenic call,"End Point: IN VITRO CHROMOSOMAL ABERRATIONS, Test System: CHL/IU CELLS, Metabolic Activation: NONE",active; positive (ploidy changes)
same,mutagenic call,"End Point: IN VITRO MICRONUCLEUS, Test System: CHL/IU CELLS, Metabolic Activation: NONE",active; positive
same,mutagenic call,"End Point: IN VITRO MICRONUCLEUS, Test System: CHO CELLS, Metabolic Activation: RAT, LIVER, S-9, AROCLOR 1254",active; positive
same,mutagenic call,"End Point: IN VITRO MICRONUCLEUS, Test System: HAMSTER V79 CELLS, Metabolic Activation: NONE",active; positive
same,mutagenic call,"End Point: IN VITRO MICRONUCLEUS, Test System: HUMAN PERIPHERAL BLOOD LYMPHOCYTES (FEMALES, AGE LESS THAN 30 AND AGE GREATER THAN 50 YR), Metabolic Activation: NONE",micronuclei elevated in elderly donors
same,mutagenic call,"End Point: IN VITRO MICRONUCLEUS, Test System: V79 CELLS, Metabolic Activation: NONE",active; positive
same,mutagenic call,"End Point: IN VIVO CHROMOSOMAL ABERRATIONS, Test System: BONE MARROW CELLS, Species: MOUSE, Strain/Sex: SWISS/MALE, FEMALE, Route: IP",active; positive
same,mutagenic call,"End Point: IN VIVO MICRONUCLEUS, Test System: POLYCHROMATIC ERYTHROCYTES, Species: MOUSE, Strain/Sex: ALBINO SWISS/MALE, Route: IP",active; positive
same,mutagenic call,"End Point: IN VIVO MICRONUCLEUS, Test System: POLYCHROMATIC ERYTHROCYTES, Species: MOUSE, Strain/Sex: SWISS/MALE, FEMALE, Route: IP",active; positive
same,mutagenic call,[1],inactive; negative
same,mutagenic call,[2],inactive; negative
same,mutagenic call,"Test System: AMES SALMONELLA TYPHIMURIUM, Strain/Indicator: TA98, Metabolic Activation: S-9, Method: PREINCUBATION",inactive; negative
same,mutagenic call,"Test System: AMES SALMONELLA TYPHIMURIUM, Strain/Indicator: TA98, Metabolic Activation: S-9, Method: STANDARD PLATE",inactive; negative
same,mutagenic call,[3],inactive; negative
same,mutagenic call,[4],inactive; negative
same,mutagenic call,"Test System: AMES SALMONELLA TYPHIMURIUM, Strain/Indicator: TA100, Metabolic Activation: S-9, Method: PREINCUBATION",inactive; negative
same,mutagenic call,"Test System: AMES SALMONELLA TYPHIMURIUM, Strain/Indicator: TA100, Metabolic Activation: S-9, Method: STANDARD PLATE",inactive; negative
same,mutagenic call,"Test System: AMES SALMONELLA TYPHIMURIUM, Strain/Indicator: TA1537, Metabolic Activation: S-9, Method: STANDARD PLATE",inactive; negative
same,mutagenic call,"Test System: E. COLI, Strain/Indicator: WP2 (HCR), Metabolic Activation: NONE, Method: STANDARD PLATE",inactive; negative
same,mutagenic call,"Test System: E. COLI, Strain/Indicator: WP2 (HCR), Metabolic Activation: S-9, Method: STANDARD PLATE",inactive; negative
same,mutagenic call,"Test System: MOUSE LYMPHOMA, Strain/Indicator: L5178Y(TK+/TK-), Metabolic Activation: NONE, Method: MICROWELL",active; positive
O=S(=O)(O)OCc1c2ccccc2c2ccc3cccc4ccc1c2c43,mutagenic call,[1],active; positive
same,mutagenic call,[2],active; positive
same,mutagenic call,[3],active; positive
same,mutagenic call,"Test System: CHINESE HAMSTER V-79, Strain/Indicator: V-79 (HGPRT)/6-THIOGUANINE, Metabolic Activation: NONE",active; positive
same,mutagenic call,"Test System: CHINESE HAMSTER V-79, Strain/Indicator: V-79 (NA/K-ATPASE)/OUABAIN, Metabolic Activation: NONE",active; positive
CN(C=O)N=O,mutagenic call,[5],active; positive
same,mutagenic call,"Test System: E. COLI, Strain/Indicator: WU3610, Metabolic Activation: NONE, Method: SUSPENSION/PLATE",active; positive
CN1C(=O)CN=C(c2ccccc2F)c2cc([N+](=O)[O-])ccc21,mutagenic call,[4],active; positive
same,mutagenic call,[6],active; positive
O=[N+]([O-])c1cc(C(F)(F)F)cc([N+](=O)[O-])c1Cl,mutagenic call,[2],inactive; negative
same,mutagenic call,[7],inactive; negative
same,mutagenic call,[4],inactive; negative
same,mutagenic call,[6],inactive; negative
same,mutagenic call,[5],inactive; negative
same,mutagenic call,"Test System: AMES SALMONELLA TYPHIMURIUM, Strain/Indicator: TA1535, Metabolic Activation: RAT, LIVER, S-9, AROCLOR 1254, Method: STANDARD PLATE",inactive; negative
same,mutagenic call,[8],inactive; negative
same,mutagenic call,"Test System: AMES SALMONELLA TYPHIMURIUM, Strain/Indicator: TA1537, Metabolic Activation: RAT, LIVER, S-9, AROCLOR 1254, Method: STANDARD PLATE",inactive; negative
same,mutagenic call,[9],inactive; negative
same,mutagenic call,[10],inactive; negative
N#[N+]c1cnc([O-])[nH]c1=O,mutagenic call,[1],active; positive
same,mutagenic call,"Test System: AMES SALMONELLA TYPHIMURIUM, Strain/Indicator: TA98, Metabolic Activation: RAT, LIVER, S-9, AROCLOR 1254, Method: PREINCUBATION",active; positive
same,mutagenic call,[3],active; positive
same,mutagenic call,"Test System: AMES SALMONELLA TYPHIMURIUM, Strain/Indicator: TA100, Metabolic Activation: RAT, LIVER, S-9, AROCLOR 1254, Method: PREINCUBATION",active; positive
CN(Cc1ccc(F)cc1)N=O,mutagenic call,"Test System: AMES SALMONELLA TYPHIMURIUM, Strain/Indicator: TA1535, Metabolic Activation: HAMSTER, LIVER, S-9, AROCLOR 1254, Method: STANDARD PLATE",active; positive
same,mutagenic call,[5],inactive; negative
Cc1c(N)nc([C@H](CC(N)=O)NC[C@H](N)C(N)=O)nc1C(=O)N[C@H](C(=O)N[C@H](C)[C@@H](O)[C@H](C)C(=O)N[C@H](C(=O)NCCc1nc(-c2nc(C(=O)NCCCN[C@@H](C)c3ccccc3)cs2)cs1)[C@@H](C)O)[C@@H](O[C@@H]1O[C@@H](CO)[C@@H](O)[C@H](O)[C@@H]1O[C@H]1O[C@H](CO)[C@@H](O)[C@H](OC(N)=O)[C@@H]1O)c1cnc[nH]1,mutagenic call,"Test System: AMES SALMONELLA TYPHIMURIUM, Strain/Indicator: TA102, Metabolic Activation: NONE, Method: STANDARD PLATE",active; positive
same,mutagenic call,[8],inactive; negative
CC(C)c1cc(N)cc([N+](=O)[O-])c1N,mutagenic call,[2],inactive; negative
same,mutagenic call,[7],inactive; negative
same,mutagenic call,[4],inactive; negative
same,mutagenic call,[6],inactive; negative
same,mutagenic call,[9],inactive; negative
same,mutagenic call,[10],inactive; negative
